Assay results reported in patent US10519177B2, “Heterocyclic compounds and uses thereof” (Plexxikon Inc., priority 2013, dated 2019).

target: BRD4-BD1 (44-164) (Homo sapiens (Human), UniProt O60885); test: Alphascreen binding assay BRD4-BD1; details: BRD4(1) H4; read-out: Biochemical activity (IC50 μM) BRD4(1) H4
In short: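 First, compound was preincubated 1 h at room temperature with the His-tagged BRD4 protein (BD1 44-164 or tandem BD12 1-477) and acetylated H4 peptide. Next, donor and acceptor beads were added at 7.5 μg/ml final. After 30 min, AlphaScreen emission was recorded.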

SMILES	IC50
Cc1noc(C)c1-c1cnc2c(C#CCO)cn(S(=O)(=O)c3ccccc3)c2c1 [P-0155, 3-[1-(benzenesulfonyl)-6-(3,5-dimethylisoxazol-4-yl)pyrrolo[3,2-b]pyridin-3-yl]prop-2-yn-1-ol]	< 1 µM
Cc1noc(C)c1-c1cnc2c(C#CCO)cn(S(=O)(=O)C3CCCC3)c2c1 [P-0156, 3-[1-cyclopentylsulfonyl-6-(3,5-dimethylisoxazol-4-yl)pyrrolo[3,2-b]pyridin-3-yl]prop-2-yn-1-ol]	< 1 µM
Cc1noc(C)c1-c1cnc2c(C#CCF)cn(S(=O)(=O)C3CCCC3)c2c1 [P-0158, 4-[1-cyclopentylsulfonyl-3-(3-fluoroprop-1-ynyl)pyrrolo[3,2-b]pyridin-6-yl]-3,5-dimethyl-isoxazole]	< 1 µM
Cc1noc(C)c1-c1cnc2ccn(C(C)c3ccccc3)c2c1 (stereo not drawn) [P-0159, 3,5-dimethyl-4-[1-(1-phenylethyl)pyrrolo[3,2-b]pyridin-6-yl]isoxazole]	< 1 µM
C=CCn1cc(-c2cn(Cc3ccccc3)c3cc(-c4c(C)noc4C)cnc23)cn1 [P-0160, 4-[3-(1-allylpyrazol-4-yl)-1-benzyl-pyrrolo[3,2-b]pyridin-6-yl]-3,5-dimethyl-isoxazole]	< 1 µM
Cc1noc(C)c1-c1cnc2c(-c3cnn(C)c3)cn(C(C)c3ccccc3)c2c1 (stereo not drawn) [P-0161, 3,5-dimethyl-4-[3-(1-methylpyrazol-4-yl)-1-(1-phenylethyl)pyrrolo[3,2-b]pyridin-6-yl]isoxazole]	< 1 µM
Cc1noc(C)c1-c1cnc2ccn(Cc3ccccc3)c2c1 [P-0162, 4-(1-benzylpyrrolo[3,2-b]pyridin-6-yl)-3,5-dimethyl-isoxazole]	< 1 µM
Cc1noc(C)c1-c1cnc2c(-c3cn[nH]c3)cn(S(=O)(=O)c3ccccc3)c2c1 [P-0163, 4-[1-(benzenesulfonyl)-3-(1H-pyrazol-4-yl)pyrrolo[3,2-b]pyridin-6-yl]-3,5-dimethyl-isoxazole]	< 1 µM
Cc1noc(C)c1-c1cnc2[nH]cc(P(C)(=O)c3ccccc3)c2c1 (stereo not drawn) [P-0165, 3,5-dimethyl-4-[3-[methyl(phenyl)phosphoryl]-1H-pyrrolo[2,3-b]pyridin-5-yl]isoxazole]	< 1 µM
Cc1noc(C)c1-c1cnc2[nH]cc(P(=O)(c3ccccc3)c3ccccc3)c2c1 [P-0166, 4-(3-diphenylphosphoryl-1H-pyrrolo[2,3-b]pyridin-5-yl)-3,5-dimethyl-isoxazole]	< 1 µM
Cc1noc(C)c1-c1cnc2c(-c3cn[nH]c3)cn(S(=O)(=O)C3CCCC3)c2c1 [P-0167, 4-[1-cyclopentylsulfonyl-3-(1H-pyrazol-4-yl)pyrrolo[3,2-b]pyridin-6-yl]-3,5-dimethyl-isoxazole]	< 1 µM
Cc1noc(C)c1-c1cnc2c(-c3cnn(C4CCCCO4)c3)cn(S(=O)(=O)c3ccccc3)c2c1 (stereo not drawn) [P-0168, 4-[1-(benzenesulfonyl)-3-(1-tetrahydropyran-2-ylpyrazol-4-yl)pyrrolo[3,2-b]pyridin-6-yl]-3,5-dimethyl-isoxazole]	< 1 µM
Cc1nc(Cn2cc(-c3cnn(C)c3)c3ncc(-c4c(C)noc4C)cc32)cs1 [P-0170, 3,5-dimethyl-4-[3-(1-methylpyrazol-4-yl)-1-[(2-methylthiazol-4-yl)methyl]pyrrolo[3,2-b]pyridin-6-yl]isoxazole]	< 1 µM
Cc1noc(C)c1-c1cnc2c(-c3cnn(C)c3)cn(Cc3cscn3)c2c1 [P-0171, 3,5-dimethyl-4-[3-(1-methylpyrazol-4-yl)-1-(thiazol-4-ylmethyl)pyrrolo[3,2-b]pyridin-6-yl]isoxazole]	< 1 µM
Cc1noc(C)c1-c1cnc2c(-c3cnn(C)c3)cn(Cc3ccccc3F)c2c1 [P-0172, 4-[1-[(2-fluorophenyl)methyl]-3-(1-methylpyrazol-4-yl)pyrrolo[3,2-b]pyridin-6-yl]-3,5-dimethyl-isoxazole]	< 1 µM
Cc1noc(C)c1-c1cnc2c(-c3cnn(C)c3)cn(Cc3c(F)cccc3F)c2c1 [P-0173, 4-[1-[(2,6-difluorophenyl)methyl]-3-(1-methylpyrazol-4-yl)pyrrolo[3,2-b]pyridin-6-yl]-3,5-dimethyl-isoxazole]	< 1 µM
Cc1noc(C)c1-c1cnc2c(-c3cnn(C(F)F)c3)cn(Cc3ccccc3F)c2c1 [P-0176, 4-[3-[1-(difluoromethyl)pyrazol-4-yl]-1-[(2-fluorophenyl)methyl]pyrrolo[3,2-b]pyridin-6-yl]-3,5-dimethyl-isoxazole]	< 1 µM
Cc1noc(C)c1-c1cnc2c(-c3cnn(C(F)F)c3)cn(C(C)c3ccccc3)c2c1 (stereo not drawn) [P-0177, 4-[3-[1-(difluoromethyl)pyrazol-4-yl]-1-(1-phenylethyl)pyrrolo[3,2-b]pyridin-6-yl]-3,5-dimethyl-isoxazole]	< 1 µM
Cc1noc(C)c1-c1cnc2c(c1)c(Sc1ccccc1)cn2-c1cnn(C)c1 [P-0184, 3,5-dimethyl-4-[1-(1-methylpyrazol-4-yl)-3-phenylsulfanyl-pyrrolo[2,3-b]pyridin-5-yl]isoxazole]	< 1 µM
Cc1noc(C)c1-c1cnc2c(c1)c(S(=O)(=O)c1ccccc1)cn2-c1cnn(C)c1 [P-0185, 4-[3-(benzenesulfonyl)-1-(1-methylpyrazol-4-yl)pyrrolo[2,3-b]pyridin-5-yl]-3,5-dimethyl-isoxazole]	< 1 µM
CCOC(=O)C(c1ccccc1)n1cc(-c2cnn(C)c2)c2ncc(-c3c(C)noc3C)cc21 (stereo not drawn) [P-0186, ethyl 2-[6-(3,5-dimethylisoxazol-4-yl)-3-(1-methylpyrazol-4-yl)pyrrolo[3,2-b]pyridin-1-yl]-2-phenyl-acetate]	< 1 µM
Cc1noc(C)c1-c1cnc2c(-c3cnn(C)c3)cn(C(CF)c3ccccc3)c2c1 (stereo not drawn) [P-0187, 4-[1-(2-fluoro-1-phenyl-ethyl)-3-(1-methylpyrazol-4-yl)pyrrolo[3,2-b]pyridin-6-yl]-3,5-dimethyl-isoxazole]	< 1 µM
Cc1noc(C)c1-c1cnc2c(-c3cnn(C)c3)cn(Cc3ccccc3C(F)(F)F)c2c1 [P-0188, 3,5-dimethyl-4-[3-(1-methylpyrazol-4-yl)-1-[[2-(trifluoromethyl)phenyl]methyl]pyrrolo[3,2-b]pyridin-6-yl]isoxazole]	< 1 µM
Cc1noc(C)c1-c1cnc2c(-c3cnn(C)c3)cn(Cc3c(Cl)cccc3Cl)c2c1 [P-0189, 4-[1-[(2,6-dichlorophenyl)methyl]-3-(1-methylpyrazol-4-yl)pyrrolo[3,2-b]pyridin-6-yl]-3,5-dimethyl-isoxazole]	< 1 µM
Cc1noc(C)c1-c1cnc2c(-c3cnn(C)c3)cn(Cc3cc(F)ccc3Cl)c2c1 [P-0190, 4-[1-[(2-chloro-5-fluoro-phenyl)methyl]-3-(1-methylpyrazol-4-yl)pyrrolo[3,2-b]pyridin-6-yl]-3,5-dimethyl-isoxazole]	< 1 µM
Cc1noc(C)c1-c1cnc2c(-c3cnn(C)c3)cn(C(CO)c3ccccc3)c2c1 (stereo not drawn) [P-0192, 2-[6-(3,5-dimethylisoxazol-4-yl)-3-(1-methylpyrazol-4-yl)pyrrolo[3,2-b]pyridin-1-yl]-2-phenyl-ethanol]	< 1 µM
Cc1noc(C)c1-c1cnc2c(-c3cnn(C)c3)cn(Cc3ccccc3Cl)c2c1 [P-0193, 4-[1-[(2-chlorophenyl)methyl]-3-(1-methylpyrazol-4-yl)pyrrolo[3,2-b]pyridin-6-yl]-3,5-dimethyl-isoxazole]	< 1 µM
